c1ccc2cc3ccccc3cc2c1
solubility (mole fraction) (in DMAc, 293.15 K): 0.0083 | solubility (mole fraction) (in DMAc, 298.85 K): 0.0113 | solubility (mole fraction) (in DMAc, 303.85 K): 0.0142 | solubility (mole fraction) (in DMAc, 308.75 K): 0.0159 | solubility (mole fraction) (in DMAc, 313.95 K): 0.0185 | solubility (mole fraction) (in DMAc, 319.75 K): 0.0215 | solubility (mole fraction) (in DMAc, 324.25 K): 0.025 | solubility (mole fraction) (in DMAc, 328.05 K): 0.0269 | solubility (mole fraction) (in DMAc, 332.2 K): 0.0301 | solubility (mole fraction) (in DMAc, 333.15 K): 0.029 | solubility (mole fraction) (in DMAc, 339.35 K): 0.0338 | solubility (mole fraction) (in DMAc, 344.95 K): 0.0393 | solubility (mole fraction) (in DMAc, 348.45 K): 0.0432 | solubility (mole fraction) (in DMAc, 350.3 K): 0.0502 | solubility (mole fraction) (in DMAc, 354.55 K): 0.0485 | solubility (mole fraction) (in DMAc, 359.25 K): 0.0564 | solubility (mole fraction) (in DMF, 293.35 K): 0.0042 | solubility (mole fraction) (in DMF, 298.45 K): 0.0054 | solubility (mole fraction) (in DMF, 303 K): 0.0057 | solubility (mole fraction) (in DMF, 303.15 K): 0.0068 | solubility (mole fraction) (in DMF, 308 K): 0.0072 | solubility (mole fraction) (in DMF, 308.45 K): 0.0086 | solubility (mole fraction) (in DMF, 312.8 K): 0.0101 | solubility (mole fraction) (in DMF, 313.21 K): 0.0114 | solubility (mole fraction) (in DMF, 313.65 K): 0.0104 | solubility (mole fraction) (in DMF, 317.4 K): 0.011 | solubility (mole fraction) (in DMF, 318.15 K): 0.0127 | solubility (mole fraction) (in DMF, 318.85 K): 0.0131 | solubility (mole fraction) (in DMF, 322.8 K): 0.0139 | solubility (mole fraction) (in DMF, 323.25 K): 0.015 | solubility (mole fraction) (in DMF, 326.28 K): 0.0166 | solubility (mole fraction) (in DMF, 329.15 K): 0.018 | solubility (mole fraction) (in DMF, 333.15 K): 0.0191 | solubility (mole fraction) (in DMF, 334.55 K): 0.0211 | solubility (mole fraction) (in DMF, 334.9 K): 0.0221 | solubility (mole fraction) (in DMF, 339.75 K): 0.0252 | solubility (mole fraction) (in DMF, 345.05 K): 0.0292 | solubility (mole fraction) (in DMF, 348.29 K): 0.032 | solubility (mole fraction) (in DMF, 349.85 K): 0.0336 | solubility (mole fraction) (in DMF, 353.55 K): 0.0384 | solubility (mole fraction) (in DMF, 358.85 K): 0.0448 | solubility (mole fraction) (in DMF, 359.48 K): 0.0452 | solubility (mole fraction) (in NMP, 293.45 K): 0.0152 | solubility (mole fraction) (in NMP, 299.15 K): 0.0186 | solubility (mole fraction) (in NMP, 303.45 K): 0.0217 | solubility (mole fraction) (in NMP, 308.55 K): 0.0255 | solubility (mole fraction) (in NMP, 314.05 K): 0.0325 | solubility (mole fraction) (in NMP, 317.84 K): 0.043 | solubility (mole fraction) (in NMP, 318.15 K): 0.0409 | solubility (mole fraction) (in NMP, 324.75 K): 0.0455 | solubility (mole fraction) (in NMP, 331.21 K): 0.0546 | solubility (mole fraction) (in NMP, 331.25 K): 0.0539 | solubility (mole fraction) (in NMP, 335.25 K): 0.0591 | solubility (mole fraction) (in NMP, 339.75 K): 0.0653 | solubility (mole fraction) (in NMP, 344.55 K): 0.0738 | solubility (mole fraction) (in NMP, 349.85 K): 0.0804 | solubility (mole fraction) (in NMP, 350.45 K): 0.0825 | solubility (mole fraction) (in NMP, 353.55 K): 0.0884
